Laboratory results from patent US9955691B2, “Macrocyclic picolinamides as fungicides” (DOW AGROSCIENCES LLC, priority 2014, dated 2018).
Where two headings read alike, the source gives them in different places.

Experiments:
[1] = test system: Mycosphaerella graminicola; Anamorph: Septoria tritici; experiment: Fungicidal activity: Leaf Blotch of Wheat (SEPTTR); assay type: in vivo; settings: Zymoseptoria tritici, wheat leaf blotch; for pest or weed control at 100 µg/mL: High Volume (100 ppm); for pest or weed control at 121.5 g/ha: Low Volume (121.5 g/H)
In short: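 Compounds were dissolved in acetone, diluted with nine volumes of water containing 110 ppm Triton X-100, and sprayed to run-off on first-leaf Yuma wheat seedlings inoculated with Septoria tritici spores before or after treatment. Plants were held in a dew chamber, then a 20° C. greenhouse. Percent control was derived from disease severity relative to untreated plants.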

Puccinia triticina = experiment: Fungicidal activity: Wheat Brown Rust (PUCCRT); assay type: in vivo; settings: for pest or weed control at 100 µg/mL: High Volume (100 ppm); for pest or weed control at 121.5 g/ha: Low Volume (121.5 g/H)
In short: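 Percent control of brown rust was derived from 0-100% severity on treated versus untreated first leaves. Yuma wheat seedlings were spray-treated to run-off (acetone/water, Triton X-100) and inoculated with P. triticina spores before or after treatment, then held overnight in dark dew at 22° C and moved to a 24° C greenhouse.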

[2] = 24 h, 1 Day Protectant, read-out: SEPTTR 1 DP disease control
[3] = 72 h, 3 Day Curative, read-out: SEPTTR 3 DC disease control
[4] = 24 h, 1 Day Protectant, read-out: PUCCRT 1 DP disease control
[5] = 72 h, 3 Day Curative, read-out: PUCCRT 3 DC disease control

Compound	melting point	pest or weed control at 100 µg/mL [1, 2]	pest or weed control at 100 µg/mL [1, 3]	pest or weed control at 100 µg/mL (Puccinia triticina; [4])	pest or weed control at 100 µg/mL (Puccinia triticina; [5])	pest or weed control at 121.5 g/ha [1, 2]	pest or weed control at 121.5 g/ha [1, 3]	pest or weed control at 121.5 g/ha (Puccinia triticina; [4])	pest or weed control at 121.5 g/ha (Puccinia triticina; [5])
COc1ccnc(C(=O)N[C@H]2COC[C@H](CC3CCCCC3)[C@@H](CC3CCCCC3)[C@H](C)OC2=O)c1OCOC(C)=O [compound 10]	50 to 56 °C	> 70%	< 70%	> 70%	> 70%	–	–	–	–
COc1ccnc(C(=O)N[C@@H]2COC[C@@H](Cc3ccccc3)[C@H](COCC(C)C)[C@@H](C)OC2=O)c1OCOC(C)=O [compound 13]	44 to 48 °C	> 70%	> 70%	> 70%	> 70%	> 70%	> 70%	> 70%	> 70%
COc1cccc(C[C@H]2COC[C@H](NC(=O)c3nccc(OC)c3OCOC(C)=O)C(=O)O[C@@H](C)[C@@H]2Cc2cccc(OC)c2)c1 [compound 17]	51 to 55 °C	–	–	–	–	> 70%	> 70%	> 70%	< 70%
COc1ccnc(C(=O)N[C@H]2COC[C@H](Cc3ccccc3)[C@@H](c3ccccc3)[C@H](C)OC2=O)c1OC(C)=O [compound 54]	99 to 103 °C	–	–	–	–	> 70%	> 70%	> 70%	> 70%
COc1ccnc(C(=O)N[C@H]2COC[C@H](Cc3ccc(Cl)cc3)[C@@H](Cc3ccc(OC(F)(F)F)cc3)[C@H](C)OC2=O)c1OCOC(C)=O [compound 58]	158 to 161 °C	–	–	–	–	> 70%	> 70%	> 70%	< 70%
COc1ccnc(C(=O)N[C@H]2COC[C@H](Cc3ccc(Cl)cc3)[C@@H](Cc3ccc(OC(F)(F)F)cc3)[C@H](C)OC2=O)c1OC(C)=O [compound 59]	80 to 85 °C	–	–	–	–	< 70%	< 70%	< 70%	< 70%
COc1ccnc(C(=O)N[C@H]2COC[C@H](Cc3ccc(C(F)(F)F)cc3)[C@@H](Cc3ccc(OC(F)(F)F)cc3)[C@H](C)OC2=O)c1OCOC(C)=O [compound 66]	57 to 60 °C	–	–	–	–	> 70%	> 70%	> 70%	> 70%
COc1ccnc(C(=O)N[C@H]2COC[C@H](CCCc3ccccc3)[C@@H](CCc3ccccc3)[C@H](C)OC2=O)c1OCOC(C)=O [compound 67]	37 to 40 °C	–	–	–	–	< 70%	< 70%	< 70%	< 70%
COc1ccnc(C(=O)N[C@H]2COC[C@H](CC3CC3)[C@@H](Cc3ccccc3)[C@H](C)OC2=O)c1OCOC(C)=O [compound 68]	41 to 45 °C	–	–	–	–	> 70%	< 70%	> 70%	< 70%
COc1ccnc(C(=O)N[C@H]2COC[C@H](CC3CC3)[C@@H](Cc3ccccc3)[C@H](C)OC2=O)c1OC(C)=O [compound 69]	125 to 128 °C	–	–	–	–	> 70%	> 70%	> 70%	> 70%

Further lines, with some results ahead:

melting point	Compound	pest or weed control at 100 µg/mL [1, 2]	pest or weed control at 100 µg/mL [1, 3]	pest or weed control at 100 µg/mL (Puccinia triticina; [4])	pest or weed control at 100 µg/mL (Puccinia triticina; [5])	pest or weed control at 121.5 g/ha [1, 2]	pest or weed control at 121.5 g/ha [1, 3]	pest or weed control at 121.5 g/ha (Puccinia triticina; [4])	pest or weed control at 121.5 g/ha (Puccinia triticina; [5])
37 to 41 °C	COc1ccnc(C(=O)N[C@H]2COC[C@H](CC3CC3)[C@@H](Cc3ccccc3)[C@H](C)OC2=O)c1OCOC(=O)C(C)C [compound 70]	–	–	–	–	> 70%	> 70%	> 70%	> 70%
54 to 59 °C	COc1ccnc(C(=O)N[C@H]2COC[C@H](Cc3ccc(C(F)(F)F)cc3)[C@@H](CC(C)C)[C@H](C)OC2=O)c1OCOC(C)=O [compound 71]	–	–	–	–	> 70%	> 70%	> 70%	> 70%
75 to 79 °C	COc1ccnc(C(=O)N[C@H]2COC[C@H](Cc3ccc(C(F)(F)F)cc3)[C@@H](CC(C)C)[C@H](C)OC2=O)c1OC(C)=O [compound 72]	–	–	–	–	> 70%	> 70%	> 70%	> 70%
85 to 89 °C	COc1ccnc(C(=O)N[C@H]2COC[C@H](Cc3ccc(Cl)cc3)[C@@H](C3CCCC3)[C@H](C)OC2=O)c1OC(C)=O [compound 86]	–	–	–	–	> 70%	> 70%	> 70%	> 70%
73 to 77 °C	COc1ccnc(C(=O)N[C@H]2COC[C@H](Cc3ccc(Cl)cc3)[C@@H](C3CCCC3)[C@H](C)OC2=O)c1OC(=O)C(C)C [compound 87]	–	–	–	–	> 70%	> 70%	> 70%	< 70%
56 to 60 °C	COc1ccnc(C(=O)N[C@H]2COC[C@H](Cc3ccc(Cl)cc3)[C@@H](C3CCCC3)[C@H](C)OC2=O)c1OCOC(C)=O [compound 88]	–	–	–	–	> 70%	< 70%	> 70%	< 70%
54 to 58 °C	COc1ccnc(C(=O)N[C@H]2COC[C@H](Cc3ccc(Cl)cc3)[C@@H](C3CCCC3)[C@H](C)OC2=O)c1OCOC(=O)C(C)C [compound 89]	–	–	–	–	> 70%	> 70%	> 70%	< 70%
52 to 55 °C	CCOCC(=O)OCOc1c(OC)ccnc1C(=O)N[C@H]1COC[C@H](Cc2ccc(Cl)cc2)[C@@H](C2CCCC2)[C@H](C)OC1=O [compound 90, ((2-(((3S,7R,8R,9S)-7-(4-chlorobenzyl)-8-cyclopentyl-9-methyl-2-oxo-1,5-dioxonan-3-yl)carbamoyl)-4-methoxypyridin-3-yl)oxy)methyl 2-ethoxyacetate]	–	–	–	–	> 70%	> 70%	> 70%	< 70%
57 to 62 °C	COc1ccnc(C(=O)N[C@H]2COC[C@H](CCC(C)C)[C@@H](C3CCCC3)[C@H](C)OC2=O)c1OC(C)=O [compound 91]	–	–	–	–	> 70%	> 70%	> 70%	< 70%
47 to 51 °C	COc1ccnc(C(=O)N[C@H]2COC[C@H](CCC(C)C)[C@@H](C3CCCC3)[C@H](C)OC2=O)c1OC(=O)C(C)C [compound 92, 2-(((3S,7R,8R,9S)-8-cyclopentyl-7-isopentyl-9-methyl-2-oxo-1,5-dioxonan-3-yl)carbamoyl)-4-methoxypyridin-3-yl isobutyrate]	–	–	–	–	> 70%	> 70%	> 70%	> 70%
47 to 53 °C	COc1ccnc(C(=O)N[C@H]2COC[C@H](CCC(C)C)[C@@H](C3CCCC3)[C@H](C)OC2=O)c1OCOC(C)=O [compound 93]	–	–	–	–	> 70%	< 70%	> 70%	< 70%
70 to 74 °C	COc1ccnc(C(=O)N[C@H]2COC[C@H](Cc3ccccc3)[C@@H](COc3ccccc3)[C@H](C)OC2=O)c1OC(C)=O [compound 95, 2-(((3S,7R,8S,9S)-7-benzyl-9-methyl-2-oxo-8-(phenoxymethyl)-1,5-dioxonan-3-yl)carbamoyl)-4-methoxypyridin-3-yl acetate]	–	–	–	–	> 70%	> 70%	> 70%	> 70%
56 to 61 °C	COc1ccnc(C(=O)N[C@H]2COC[C@H](Cc3ccccc3)[C@@H](COc3ccccc3)[C@H](C)OC2=O)c1OCOC(C)=O [compound 96]	–	–	–	–	> 70%	> 70%	> 70%	< 70%
55 to 60 °C	COCCC(=O)Oc1c(OC)ccnc1C(=O)N[C@H]1COC[C@H](Cc2ccc(Cl)cc2)[C@@H](C2CCCC2)[C@H](C)OC1=O [compound 106, 2-(((3S,7R,8R,9S)-7-(4-chlorobenzyl)-8-cyclopentyl-9-methyl-2-oxo-1,5-dioxonan-3-yl)carbamoyl)-4-methoxypyridin-3-yl 3-methoxypropanoate]	–	–	–	–	> 70%	> 70%	> 70%	> 70%
